Source: publication PMC8851638 (ACS Omega, 2022)
In brackets after ≈: the same amount, converted by molar mass. Several values for one entry are separate records, joined by “and”; a condition that tells them apart may be missing. Equal values may be shown once.

Tests used:
[1] = system: C. albicans100 (MDR00100); test: MIC and MFC by broth microdilution; format: cell-based, Candida albicans
C. albicans200 [2] = test: Time-kill kinetic assay; format: cell-based, Candida albicans
[3] = system: C. albicans100 (MDR00100); test: Agar well-diffusion antimicrobial sensitivity assay; format: cell-based, Candida albicans; conditions: Candida albicans, read-out: Inhibition Zone (IZ)
C. albicans100 [4] = test: Time-kill kinetic assay; format: cell-based, Candida albicans
[5] = system: C. albicans200 (MDR00200); test: Agar well-diffusion antimicrobial sensitivity assay; format: cell-based, Candida albicans; conditions: Candida albicans, read-out: Inhibition Zone (IZ)
RBCs = test: Hemolytic assay; format: cell-based; conditions: human RBCs; compounds 1.0 mg/mL; Triton X-100 0.1% v/v; 37 °C, 35 min
[6] = system: clinical pathogenic isolates; test: Single-step resistance selection, whole panel; format: cell-based; conditions: 4 × MIC
C. albicans200 [7] = test: Single-step resistance selection; format: cell-based, Candida albicans; conditions: 4 × MIC, 48 h
C. albicans100 [8] = test: Single-step resistance selection; format: cell-based, Candida albicans; conditions: 4 × MIC, 48 h
[9] = system: C. albicans200 (MDR00200); test: MIC and MFC by broth microdilution; format: cell-based, Candida albicans

CC(=O)N1CCN(c2ccc(OCC3COC(Cn4ccnc4)(c4ccc(Cl)cc4Cl)O3)cc2)CC1 (stereo not shown) [KCA, Ketoconazole, reference compound]
MIC (mean ± SEM) ([1]; C. albicans100, broth microdilution): 0.49 ± 0.3 mg/L (≈ 0.922 µM) | MFC/MIC ([1]; C. albicans100, ratio in parentheses): 1 | MIC ([1]; Candida albicans, read-out: MIC (mean ± SEM), C. albicans100, broth microdilution): 0.49 mg/L (≈ 0.922 µM) | time of reduction in the colony-forming units (C. albicans200 [2]): 48 h | zone of inhibition at 100000 µg/mL [3]: 21 ± 0.23 mm | time of reduction in the colony-forming units (C. albicans100 [4]): 48 h | zone of inhibition at 100000 µg/mL [5]: 24 ± 0.54 mm | %lysis of RBCs (RBCs): 15.38% and 15.38 ± 0.32% | mutation frequency, range over panel [6]: 3.19 × 10^–8 to 3.42 × 10^–9 | Single-step resistance frequency (mutation frequency) (C. albicans200 [7]): 3.19 × 10^–8 | Single-step resistance frequency (mutation frequency) (C. albicans100 [8]): 3.42 × 10^–9 | MFC/MIC ([9]; C. albicans200, ratio in parentheses): 0.5 | MIC ([9]; Candida albicans, read-out: MIC (mean ± SEM), C. albicans200, broth microdilution): 0.45 ± 0.3 mg/L (≈ 0.847 µM)
